≈ marks a conversion by molar mass, not a printed value.

One compound from EPA's ToxValDB 9.5 (doi:10.2903/j.efsa.2011.2152) can be followed below.

One series relates to Bird. Particulars: reproductive; mortality.
In the next series the test system is Oncorhynchus mykiss. As to conditions: acute; duration: 96 hours; mortality.
A further series deals with Cyprinus carpio. As to conditions: chronic/long-term; duration: 28 days.
A further series deals with Daphnia magna. As to conditions: chronic/long-term; duration: 21 days.
In the next series the test system is Coturnix japonica. Particulars: acute; oral; mortality.
The subject of the next series is Tagia sp. As to conditions: acute; duration: 14 days; mortality.
For a further series, the system named is Oryctolagus sp. Particulars: reproduction developmental; body weight.
Another series has as its system Aphidius rhopalosiphi. The experiment in a line: LR50; higher = less toxic. As to conditions: not reported; mortality.
In a further series the test system is Typhlodromus pyri. The series is described as follows: LR50; higher = less toxic. As to conditions: not reported; mortality.

What is called NOAEL is the highest dose or exposure tested at which no adverse effect was seen. With `O=C(O)COc1ccc2ccccc2c1` [2-Naphthoxyacetic acid], the NOEC turned out to be 10 mg/kg-day in the series with Bird, 10 mg/L in the series on Cyprinus carpio and 6.7 mg/L in the series on Daphnia magna. Besides, the values for the LC50 with Oncorhynchus mykiss and with Tagia sp. were 2.39 µg/mL (≈ 11.8 µM) and 0.045 g/ha, respectively. Also, the LD50 in the series with Coturnix japonica was above 2000 mg/kg-day; in the series on Rattus norvegicus (acute, oral, F, mortality), 1420 mg/kg-day. In addition, the NOAEL in the series on Oryctolagus sp. is 60 mg/kg-day; in the series with Rattus norvegicus (developmental, development) it was 60 mg/kg-day; with Rattus norvegicus (reproduction developmental, mortality), 30 mg/kg-day; with Rattus norvegicus (subchronic, duration: 90 days, oral, organ weight) it was 10 mg/kg-day. Further, the values for the LR50 in the series on Aphidius rhopalosiphi and with Typhlodromus pyri were above 100 g/ha and above 80 g/ha, respectively.
